# “Also recorded” adds a separate entry of the source.
# Tests used:
# Format in all cases: in vivo
# [1] = system: small clot embolic strokes in rabbits; assay: rabbit small clot embolic stroke model (RSCEM), quantal analysis of behavior
# Text: The invention used a rabbit small clot embolic stroke model (RSCEM) that reproduces many facets of human AIS including a well-defined clinical endpoint. The RSCEM utilizes administration of a suspension of small blood clots to induce strokes, and behavioral deficits that can be measured quantitatively. Moreover, the RSCEM is useful to conduct studies testing the effects of single drugs or drug combinations such as a neuroprotective agent (e.g., NXY-059) plus a thrombolytic (Tenecteplase, Alteplase, Desmoteplase and the like). Since it is likely that a drug combination will be used for patient management it is important to determine whether there are any interactions (positive or negative) between the compounds when administered following embolic strokes.
# Methods: Male New Zealand white rabbits were anesthetized using halothane (5% induction, 2% maintenance by facemask), the bifurcation of the right carotid artery was exposed and the external carotid was ligated just distal to the bifurcation, where a catheter was inserted into the common carotid and secured with ligatures. The incision was closed around the catheter with the distal ends left accessible outside the neck; the catheter was filled with heparinized saline and plugged with an injection cap. Rabbits were allowed to recover from anesthesia for a minimum of 3 h until they awoke and behaved normally.
# For the RSCEM, microclots were prepared from blood drawn from a donor rabbit and allowed to clot at 37° C. All rabbits in the study received injections of the same sized microclots. For embolization, clot particles were rapidly injected through the carotid catheter and both the syringe and catheter were flushed with 5 ml of normal saline.
# Treatment Regimens: (A) Dose-Response Curve: NXY-059 was administered IV at a dose of 0.1-100 mg/kg infused over 30 min beginning 1 hour following embolization. (B) Therapeutic Window: NXY-059 (100 mg/kg) was given beginning 1, 3 or 6 hours following embolization. (C) Tenecteplase Dosing: Tenecteplase was administered IV at a dose of 0.9 mg/kg as a bolus injection given over one minute was administered 1 or 6 hours following embolization. (D) Combination studies: NXY-059 was administered IV at a dose of 100 mg/kg infused over 30 min and Tenecteplase was administered IV at a dose of 0.9 mg/kg beginning 1 or 6 hours following embolization.
# Quantal Dose-Response Analysis: For the RSCEM, a quantal dose-response data analysis technique was used. A wide range of lesion volumes is induced to generate both normal and abnormal animals. Using 3 or more different doses of microclots generated each quantal analysis curve. […] Each animal is rated as either normal or abnormal (including dead animals), and inter-rater variability is very low (<5%). […] With this simple rating system, the composite result for a group of animals is quite reproducible. The P50 values are then calculated. These parameters are measures of the amount of microclots (in mg) that produce neurologic dysfunction in 50% of a group of animals. A separate curve is generated for each treatment condition that was tested. The data were analyzed using the t-test, which included the Bonferroni correction where appropriate.
# Using the RSCEM model as described above male New Zealand white rabbits weighing 2.2-2.6 Kg were anesthetized and a catheter was inserted into the common carotid artery through which microclots were injected. Briefly, the bifurcation of one carotid artery was exposed and the external carotid was ligated just distal to the bifurcation. A catheter was inserted into the common carotid and secured with ligatures. The incision was closed around the catheter so that the distal end was accessible outside the animal's neck. The catheter was then filled with heparinized saline and plugged with an injection cap. Rabbits were allowed to recover from anesthesia until they were awake and behaving normally. […]
# [2] = system: spinal cord ischemia induced by temporary occlusion of the infrarenal aorta; assay: rabbit reversible spinal cord ischemia model (RSCIM)
# Description: In a rabbit reversible spinal cord ischemia model (RSCIM). ABHS was administered (25 mg/kg) intravenously (i.v.) 5 or 30 min following the start of occlusion to groups of rabbits exposed to ischemia induced by temporary occlusion of the infrarenal aorta. The group P50 represents the duration of ischemia (min) associated with a 50% probability of resultant permanent paraplegia.
# [3] = system: small clot embolic strokes in rabbits; assay: rabbit small clot embolic stroke model (RSCEM), quantal analysis of behavior; details: for Observation: ABHS 25 mg/kg IV; for Abnorm / Norm: ABHS 25 mg/kg, 5 min
# [4] = ABHS 25 mg/kg, 5 min, clot dose 0.38 mg
compound,measurement,setting,value
CC12CC3CC(C)(C1)CC(N)(C3)C2 [memantine],effect on efficacy of low-dose tPA,[1]; FIG. 8,increases the efficacy of low-dose tPA
"CC(=O)[C@H]1CC[C@H]2[C@@H]3CC[C@@H]4C[C@H](OC(=O)CCC(=O)O)CC[C@]4(C)[C@H]3CC[C@]12C [ABHS, 3-alpha-ol-5-beta-pregnan-20-one hemisuccinate]",Observation,"[1]; ABHS 25 mg/kg IV, 60 min following embolization",Sedation
same,Abnorm (rabbits rated behaviorally abnormal),[1]; [4],0
same,Norm (rabbits rated behaviorally normal),[1]; [4],1
same,Abnorm,"[1]; ABHS 25 mg/kg, 5 min, clot dose 1.99 mg",1
same,Abnorm,"[1]; ABHS 25 mg/kg, 5 min, clot dose 2.21 mg",1
same,Norm,"[1]; ABHS 25 mg/kg, 5 min, clot dose 2.97 mg",1
same,Abnorm,"[1]; ABHS 25 mg/kg, 5 min, clot dose 4.35 mg",1
same,effect on therapeutic window of tPA,[1]; FIG. 7,increases the therapeutic window for tPA
same,effect on tolerance to ischemia,[2]; ABHS administered 30 min following the start of occlusion,increased the tolerance to ischemia
same,persistence of effect,[2]; ABHS injected 5 min following the start of ischemia and again 24 h after ischemia,persistent effect of the drug at 48 h
same,Observation,[3]; 5 min following embolization,Sedation
same,Observation,[3]; 180 min following embolization,Sedation
same,Abnorm,[3]; clot dose 0.53 mg,0
same,Norm,[3]; clot dose 0.53 mg,1
same,Abnorm,[3]; clot dose 1.42 mg,0
same,Norm,[3]; clot dose 1.42 mg,1
same,Abnorm,[3]; clot dose 1.60 mg,0
same,Norm,[3]; clot dose 1.60 mg,1
same,Abnorm,[3]; clot dose 1.72 mg,0
same,Norm,[3]; clot dose 1.72 mg,1
same,Norm,[3]; clot dose 1.99 mg,0
same,Norm,[3]; clot dose 2.21 mg,0
same,Abnorm,[3]; clot dose 2.31 mg,0
same,Norm,[3]; clot dose 2.31 mg,1
same,Abnorm,[3]; clot dose 2.89 mg,1
same,Norm,[3]; clot dose 2.89 mg,0
same,Abnorm,[3]; clot dose 2.97 mg,0
same,Abnorm,[3]; clot dose 3.38 mg,1
same,Norm,[3]; clot dose 3.38 mg,0
same,Abnorm,[3]; clot dose 3.88 mg,1
same,Norm,[3]; clot dose 3.88 mg,0
same,Norm,[3]; clot dose 4.35 mg,0
same,Abnorm,[3]; clot dose 4.67 mg,0
same,Norm,[3]; clot dose 4.67 mg,1
Tenecteplase,P50,"[1]; Tenecteplase 0.9 mg/kg IV bolus, 1 hour following embolization, 24 hours",2.76 ± 0.37 mg
same,increase of P50 over control,"[1]; Tenecteplase 0.9 mg/kg, 1 hour following embolization",130%
same,effect on P50 vs control,"[1]; Tenecteplase 0.9 mg/kg, 6 hours following embolization","did not increase the P50 compared to control; also recorded: neither Tenecteplase, nor NXY-059, significantly (p>0.05) affect P50 values"
"CC(C)(C)[N+]([O-])=Cc1ccc(S(=O)(=O)O)cc1S(=O)(=O)O.[Na].[Na] [NXY-059, disodium 2,4-disulfophenyl-N-tert-butylnitrone]",P50,"[1]; NXY-059 100 mg/kg, 6 hours following embolization, not significant vs vehicle",1.35 ± 0.37 mg
same,effect on P50 vs vehicle,"[1]; NXY-059 doses from 1-100 mg/kg, 1 hour following embolization, p<0.05",significantly increased the P50
same,effect on P50 vs vehicle,"[1]; NXY-059 lower dose (0.10 mg/kg), 1 hour following embolization, p>0.05",did not
